Consider four molecules from US20100183524A1, “ANTIOXIDANT COMPOSITIONS FOR SOFT ORAL TISSUE AND METHODS OF FORMULATION AND USE THEREOF” (Perio Sciences, LLC, priority 2008, published 2010).

In series [1] the test system is Rac-GTP in HPDL cells. As to the kind of experiment: Rac-GTP immunofluorescence in scratch wound assay, nicotine-exposed HPDL. It counts as cell-based, human. Particulars: nicotine 6 mM, 8 mM, 10 mM. As for the experimental part: (§1) Both cell types tested (HGF and HPDL) were plated at 5×10^4 cells/well in a Lab-Tek II chamber glass slide with cover (Nalge Nunc International, Rochester, N.Y.). Approximately 400 μl of cell medium suspension was added to each well. The cells were grown overnight until confluent. Cells were pretreated with nicotine (10 mM, 8 mM and 6 mM) for two hours and then treated with antioxidants (resveratrol, trans=ferulic acid, tetrahydrocurcuminoids CG™, or phloretin) in double or triple combinations at 0.4% w/v (10^−5M). Two hours later, a scratch wound assay was performed using a sterile 10 μl pipet tip.
(§2) The cells were fixed with 4% paraformaldehyde for 30 minutes and then washed with sterile phosphate buffered saline (PBS) three times. […] The secondary antibody (1:500 Alexa Fluor® 488 goat anti-mouse IgG (H+L) (Molecular Probes, Eugene, Oreg.) was incubated for two hours at room temperature. The stained cells were washed with PBS three times. The Lab-Tek II wells were removed and the cells were cover-slipped with slowfade mounting medium. Analysis of the levels of Rac-GTP at the leading edge of the wound were determined using confocal microscopy. All treatments were recorded with the same settings on a Leica SP2 microscope. All images were taken from projected z stacks of the immunolabeled cells. Intensity of Rac-GTP immunofluorescence was determined using Nikon Elements software. […]

In series [2] the test system is human gingival fibroblast (HGF) cells. Particulars: 6, 8 or 10 mM nicotine, two hours.
Method: Cells were then treated with a solution containing either the three antioxidants described above, or a 1:1 ratio of only two antioxidants, or only a single antioxidant. Cell migration was recorded using BioStation Live Cell Imaging (Nikon Instruments, Melvile, N.Y.) every hour for ten hours, and data presented here is for 1 hour, 5 hours, or 10 hours.
Series [3] concerns Rac-GTP in HGF cells. The series is described as follows: Rac-GTP immunofluorescence in scratch wound assay, nicotine-exposed HGF. It counts as cell-based, human. The procedure:
as §1, §2

Series [4] has as its system Human periodontal ligament fibroblasts (HPDL).
Method: Culture conditions as described in HGF were similarly employed in the HPDL cells. In this experiment, 5×10^3 cells in 100 μL of culture medium were seeded into each well of a 96-well plate. […] Bioactive antioxidant mixtures tested included: resveratrol, ferulic acid and tetrahydrocurcuminoids (RFT), phloretin, ferulic acid and resveratrol (PFR), phloretin, ferulic acid and tetrahydrocurcuminoids (PFT).
Cells were washed with PBS and treated with antioxidant mixtures (RFT, PFR, PFT) in 0.1% FBS medium (DMEM and 1% antimycotic/antiobiotic) for 24 hours.
Different ethanol concentrations (15%, 10% and 5%) were used for dose response experiments for 30 or 60 minutes.
After pretreatment with ethanol or H2O2, the cells were rinsed and treated with 10^−5M (0.4% wt/v) antioxidant mixture (RFT, PFR, PFT) for 24 hrs.
(§3) Cell viability and survival were assessed by MTS colorimetric assay (3-[4,5-dimethylthiazol-2-yl]-5-[3-carboxymethoxyphenyl]-2-[4-sulfophenyl]-2H-tetrazolium) (Promega Corp., Madison, Wis.). This quantitative assay detects living but not dead cells. […] The absorbance at 490 nm was measured using a SpectraMax microplate spectrophotometer (Molecular Devices, Sunnyvale, Calif.). […]
a. Percent viable cells were expressed as; A/B, where A is absorbance at 490 nm with antioxidant compounds (RFT, PFR, PFT) and H2O2 or Ethanol pre-treatments; B absorbance at 490 nm with 0.1% FBS (control). […]
Series [5] concerns human gingival fibroblasts (HGF).
Method: Human gingival tissues from healthy nonsmokers were collected with institutional review board approval and tissues were cultured in high glucose Dulbecco's modified eagles medium (DMEM), 10% FBS, and 1% antimycotic/antiobiotic. Tissues were incubated at 37° C. in a humidified gas mixture (5% CO2 and 95% air) and medium was changed every 24 hours. Human gingival fibroblasts (HGF) grew from the tissue after a week. Cells were passaged using 0.25% trypsin solutions and plated in new tissue culture flasks when confluent. Passages 3-12 were used in all of the experiments.
In this experiment, 5×10^3 cells in 100 μL of culture medium were seeded into each well of a 96-well plate. […]
as §3
Percent viable cells were expressed as; A/B, where A is absorbance at 490 nm with antioxidant compounds (RFT, PFR, PFT) and H2O2 or Ethanol pre-treatments; B absorbance at 490 nm with 0.1% FBS (control). […]

Consider `CN1CCCC1c1cccnc1` (centres unmarked) [nicotine], for which the “effect of nicotine on Rac-GTP expression” value in series [1] is “dose dependent decrease”; in series [3] (nicotine 6 mM, 8 mM, 10 mM), “dose dependent decrease”. The “effect of nicotine on cell migration” value in series [2] is on record as “deleterious effect on cell migration that increased with exposure to more concentrated nicotine”.
Regarding ethyl alcohol [Ethanol], the “cell viability (MTS) after ethanol” value in series [4] and in series [5] was “dose dependent effect on cell viability” throughout.
With `OO` [Formulation H2O2, hydrogen peroxide], the “viable cells (MTS) after H2O2” value in series [4] and in series [5] was “dose-dependent decrease of viable cells” each time.
Consider `COc1cc(/C=C/C(=O)O)ccc1O` [trans-ferulic acid], for which the “increase of Rac-GTP expression over nicotine treated cells (6 mM Nic), mean pixel intensity” value in series [3] (6 mM nicotine two hours, then antioxidants 10^−5 M, leading edge of the wound) came to 35%.
